According to article PMC2850272 (Bioorganic & medicinal chemistry, 2010):

Conditions: pH 7.4

Substance | Permeability (PAMPA)
2-(Benzo[d][1,3]dioxol-5-yl)-3-(ethoxymethyl)-5-methoxyquinoline [30b] | 2796±1746 10^−6 cm/s
2-(Benzo[d][1,3]dioxol-5-yl)-4-chloro-3-(ethoxymethyl)-7-methoxyquinoline [28a] | 802±370 10^−6 cm/s
Ethyl 2-(benzo[d][1,3]dioxol-5-yl)-5-methoxy-4-(methylamino)quinoline-3-carboxylate [25b] | 1240±154 10^−6 cm/s
Ethyl 2-(benzo[d][1,3]dioxol-5-yl)-7-methoxy-4-(methylamino)quinoline-3-carboxylate [25a] | 2013±179 10^−6 cm/s
